Consider one molecule from PMC5516794 (Journal of medicinal chemistry, 2017).

For data set [1], the system named is cytoplasmic calcium. The experiment in a line: Fluo-4 fluorescence measurement of ATP-stimulated cytoplasmic calcium elevation. The data set is classed as cell-based. The note with it: 1 μM.
Data set [2] is described as follows: Shelf stability as solid or DMSO stock. The note with it: as a solid or in DMSO stock solution. The data set is classed as physicochemical.
Data set [3] has as its target T1, TMEM16A (Homo sapiens, UniProt Q5XXA6).
T1 sequence (Q5XXA6 1-986): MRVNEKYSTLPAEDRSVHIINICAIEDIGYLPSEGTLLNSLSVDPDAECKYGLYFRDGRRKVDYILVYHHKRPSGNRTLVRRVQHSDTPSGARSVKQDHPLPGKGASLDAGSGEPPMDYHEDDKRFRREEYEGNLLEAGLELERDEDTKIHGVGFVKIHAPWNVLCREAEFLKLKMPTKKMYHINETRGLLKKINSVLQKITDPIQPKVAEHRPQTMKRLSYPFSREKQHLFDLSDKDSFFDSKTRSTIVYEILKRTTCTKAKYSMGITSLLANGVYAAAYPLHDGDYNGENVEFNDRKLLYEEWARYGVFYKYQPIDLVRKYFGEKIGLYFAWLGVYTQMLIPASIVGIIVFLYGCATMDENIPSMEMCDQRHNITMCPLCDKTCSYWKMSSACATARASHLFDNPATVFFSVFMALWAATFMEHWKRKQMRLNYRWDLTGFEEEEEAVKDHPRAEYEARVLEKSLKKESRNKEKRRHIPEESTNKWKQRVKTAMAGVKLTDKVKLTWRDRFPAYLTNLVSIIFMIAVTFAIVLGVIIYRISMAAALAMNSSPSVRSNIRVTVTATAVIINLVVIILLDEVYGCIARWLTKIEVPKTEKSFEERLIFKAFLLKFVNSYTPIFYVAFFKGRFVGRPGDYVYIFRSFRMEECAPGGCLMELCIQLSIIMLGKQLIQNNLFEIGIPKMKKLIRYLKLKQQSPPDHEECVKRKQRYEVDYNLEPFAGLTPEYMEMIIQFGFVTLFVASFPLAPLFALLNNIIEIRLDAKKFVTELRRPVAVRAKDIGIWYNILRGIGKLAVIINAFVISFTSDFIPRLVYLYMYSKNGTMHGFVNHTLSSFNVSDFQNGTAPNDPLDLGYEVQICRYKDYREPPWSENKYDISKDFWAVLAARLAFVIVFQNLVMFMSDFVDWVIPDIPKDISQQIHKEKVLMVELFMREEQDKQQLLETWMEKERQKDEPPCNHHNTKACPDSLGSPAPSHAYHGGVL
The experiment in a line: Short-circuit current assay in TMEM16A-expressing FRT cells. In kind it is cell-based. The following applies: Figure S2A.

Data set [4] deals with T1, TMEM16A. The experiment in a line: Patch clamp, inside-out membrane patches from TMEM16A-expressing FRT cells. In kind it is cell-based.
Data set [5] concerns mouse ileum. The experiment in a line: Ex vivo intestinal contractility. The following applies: added to bath, concentration-dependent.

Consider `Cc1ccccc1NC(=O)c1c(NC(=O)C(F)(F)Br)sc2c1CCCCC2` [Compound 10bm], for which, in data set [1], the “effect on ATP-stimulated cytoplasmic calcium” value is reported as “not altered”. In data set [2], this molecule registered a long-term shelf stability of more than 6 months. Also, in data set [3], the “ionomycin- and carbachol-activated chloride conductance” value was “inhibited”. Moreover, the “effect on TMEM16A membrane currents” value in data set [4] (250 nM by perfusion, inside-out patch, free Ca2+ 305 nM) is recorded as “rapid inhibition of membrane currents”. In addition, the “recovery of membrane currents after washout” value in data set [4] (after 250 nM, washout) is “fully recovered following washout”. Further, the “spontaneous isometric contractions of ileum” value in data set [5] was “strongly inhibited”.
